For experiment [1], the system named is C-33A. The experiment is described as follows: Growth inhibition assay (SRB). The format is cell-based. The settings on record: 10 μM, three-day treatment, Table I. An outline of the steps:
(§1)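 Cells plated at 2000-4000/well, then treated next day with compound at final 1, 2, 3, 4, 5, 7 and 10 μM for 3 days. Density by TCA fixation and sulforhodamine B staining with OD read-out, in triplicate. Percent growth inhibition = (1 − treated OD/DMSO-control OD) × 100.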

In experiment [2] the test system is CAOV-3. The experiment is described as follows: Growth inhibition assay (SRB). The format is cell-based. The settings on record: 10 μM, three-day treatment, Table I. The method in brief:
as §1

The subject of experiment [3] is HT-3. The experiment is described as follows: Growth inhibition assay (SRB). The format is cell-based. The settings on record: 10 μM, three-day treatment, Table I. The method in brief:
as §1

Experiment [4] relates to SK-OV-3. The experiment is described as follows: Growth inhibition assay (SRB). The format is cell-based. The settings on record: 10 μM, three-day treatment, Table I. An outline of the steps:
as §1

Experiment [5] concerns SW962. The experiment is described as follows: Growth inhibition assay (SRB). The format is cell-based. The settings on record: 10 μM, three-day treatment, Table I. The method in brief:
as §1

Experiment [6] deals with SiHa. The experiment is described as follows: Growth inhibition assay (SRB). The settings on record: 10 μM, three-day treatment, Table I. The format is cell-based. An outline of the steps: as §1
For experiment [7], the system named is SW962 vulvar carcinoma cultures. The experiment is described as follows: Apoptosis assay, Annexin-V-Flous/propidium iodide flow cytometry. The format is cell-based. The source says: Optimal chemotherapeutic agents will selectively kill tumor cells by inducing a natural form of cell death which is called “apoptosis”. Toxic agents kill both normal and tumor cells via a nonspecific process known as “necrosis”. To differentiate between apoptosis and necrosis in heteroarotinoid-treated cultures, a flow cytometric assay was employed. Treated cultures were stained with Annexin-V-Flous and propidium iodide, and the intensities of the stains are quantitated with Flow Cytometry. The Annexin-V-Flous binds to phosphatidyl serine on the exterior of apoptosing cells. This assay is specific for apoptosing cells because phosphatidyl serine is normally located on the inner membrane of the cells, a situation whereby the serine derivative cannot be bound by Annexin. However, during apoptosis, phosphatidyl serine is translocated to the outer membrane. The Flous moiety emits a signal that can be detected and quantitated by Flow Cytometry. In contrast, propidium iodide is taken up by necrotic cells that have lost membrane integrity. In this study, t-RA was used as a control for the non-apoptotic retinoids, and 4-HPR was used as a control for the apoptotic retinoids.

The subject of experiment [8] is retinoic acid receptors. The experiment is described as follows: CV-1 co-transfection assay. The format is cell-based.
The subject of experiment [9] is OVCAR-3 cisplatin-resistant ovarian carcinoma cell line. The experiment is described as follows: Cisplatin chemosensitization (MTS assay). The format is cell-based, human. The settings on record: 1 μM retinoid 3 days before and 3 days after one hour of cisplatin (40 μM or 1 μg/ml). On the procedure: The compounds of the present invention also find advantage over the standard retinoids, including retinoic acid and 4-HPR as chemosensitization agents. In another study, ovarian carcinoma cultures, including cisplatin-resistant cultures, were trypsinized and plated in microtiter plates at a concentration of 1000 cells per well. A series of natural and synthetic retinoids, including exemplar heteroarotinoids with the novel three atom linker, at a concentration of 5 μM were added to triplicate wells in the microtiter plates twenty-four hours later. The same volume of DMSO used to administer the compounds were added to the control cultures. After three days of treatment, a range of cisplatin concentrations were added to the wells. After one hours of exposure, the media and retinoid drugs were replenished. Cell survival was quantitated using the MTS assay (Promega). […] Thus, the present invention contemplates the process of sensitizing cells to cisplatin therapy and combined cisplatin and radiation therapy using the inventive heteroarotinoids.
In this regard, the cisplatin resistant OVCAR-3 cell line was pre-treated with a concentration of 1 μM of the indicated retinoids for 3 days, and then exposed to cisplatin at the concentration detected in tumors of treated patients (40 μM or 1 μg/ml). […] After one hour of cisplatin exposure, the cisplatin was removed and the cultures were grown in the presence of 1 μM of the indicated retinoids for an additional 3 days. The number of living cells present was then determined using the MTS (3-(4,5-dimethylthiazol-2-yl)-5-(3-carboxymethoxyphenyl)-2H-tetrazolium inner salt) assay (Promega). In the MTS assay, metabolically active cells reduce the MTS compound to an aqueous soluble formazan resulting in an absorbance that can be measured at 490 nm (Promega Technical Bulletin No.169). The optical density at 490 nm (OD490) of the MTS-treated cultures is then determined and used as a measure of the number of living cells in each well. The percent growth is determined by dividing the OD490 of the treated cultures by the OD490 of the untreated control cultures.
Background: Tetrazolium assays rely on reduction of a dye to a coloured formazan, in cell work by metabolically active cells.

The source of these data is patent publication US6586460B1, “Heteroarotinoids containing urea or thiourea linker” (The Board of Regents for Oklahoma State University, priority 2001, dated 2003).

For the compound `CC1(C)CC(C)(C)c2cc(NC(=S)Nc3ccc([N+](=O)[O-])cc3)ccc2S1` [heteroarotinoid 11], the “Percentage growth inhibition, C-33A (Cervix HPV− Mut p53)” value in experiment [1] amounted to 87%. In [2], the “Percentage growth inhibition, CAOV-3 (Ovarian HPV− Mut p53)” value came out at 80%. Moreover, the “Percentage growth inhibition, HT-3 (Cervix HPV− Mut p53)” value in [3] was 82%. Further, the “Percentage growth inhibition, SK-OV-3 (Ovarian HPV− Null p53)” value in experiment [4] turned out to be 100%. Further, in [5], the “Percentage growth inhibition, SW962 (Vulva HPV− Mut p53)” value was 98%. In addition, the “Percentage growth inhibition, SiHa (Cervix HPV+ Wt p53)” value in experiment [6] is given as 72%. For the same compound, the “Percentage of induction of apoptosis in SW962 vulvar carcinoma cultures” value in [7] (Days 0) came out at 3%; in [7] (Days 1), 6.11%; in experiment [7] (Days 2), 11.42%; in experiment [7] (Days 3), 39.06%; in [7] (Days 4), 48.79%; in [7] (Days 7) it was 47.5%. In [7] (Table IV), the “apoptosis in the SW962 vulvar cell, comparison in words” value is on record as “superior to the clinically used agent 4-HPR”. Besides, the “transactivation of each of the retinoic acid receptors” value in experiment [8] is “No transactivation”. Moreover, the “chemosensitization to cisplatin (percent growth, FIG. 2)” value in experiment [9] is recorded as “effective”.

With `CCOC(=O)c1ccc(NC(=O)Nc2ccc3c(c2)C(C)(C)CC(C)(C)S3)cc1` [heteroarotinoid 13], the “Percentage growth inhibition, C-33A (Cervix HPV− Mut p53)” value in experiment [1] is reported as 76%. Besides, the “Percentage growth inhibition, CAOV-3 (Ovarian HPV− Mut p53)” value in experiment [2] was 98%. In addition, the “Percentage growth inhibition, HT-3 (Cervix HPV− Mut p53)” value in experiment [3] stood at 85%. For the same compound, in experiment [4], the “Percentage growth inhibition, SK-OV-3 (Ovarian HPV− Null p53)” value was 94%. The “Percentage growth inhibition, SW962 (Vulva HPV− Mut p53)” value in experiment [5] is recorded as 96%. In addition, in experiment [6], the “Percentage growth inhibition, SiHa (Cervix HPV+ Wt p53)” value came out at 66%. In addition, the “chemosensitization to cisplatin (percent growth, FIG. 2)” value in experiment [9] was “effective”.
